Data: patent US5382586A, “Aryl (or heteroaryl)piperazinylalkylazole derivatives, their preparation and their application as medicaments” (priority 1991, dated 1995)

Tests used:
[1] = system: mice, abstinence syndrome induced by cocaine, diazepam, alcohol or nicotine; assay: light box/dark box test: inhibition of the abstinence syndrome; assay type: in vivo, mouse; design: Time in box, dark (D) / Latent period L-D: unit not given here
Method: The light box/dark box test described by B. Costall et al. (J. Phar. Pharmacol., 1988, 40: 494-500) is used. The mouse is placed in the light zone of a box divided into two compartments, one brightly illuminated, the light box, and the other with little illumination, the dark box.
1) The number of times the mouse stands up on the hind paws in each compartment during a 5 minute period is counted (see Column 1 of Table V).
2) The activity in each compartment is given by counting the number of crossings through the squares which form the divisions of each compartment (see Column 2 of Table V).
3) The time passed in the dark box during the 5 minute counting period is determined (see Column 3 of Table 5).
4) The initial latent period is determined, that is to say the time which elapses after the animal is placed in the light box, at the start of the test, before it enters the dark box (see Column 4 of Table 5).
1) Dependency on a given treatment (diazepam, cocaine, alcohol or nicotine) employing daily administration over a period of 7 or 14 days.
Diazepam: 10 mg/kg i.p. twice per day over a period of 7 days.
Cocaine: 1 mg/kg i.p. over a period of 14 days.
Alcohol: Administered at 8% weight/volume in the drinking water over a period of 14 days. Nicotine: 0.1 mg/kg i.p. twice per day over a period of 7 days.
3) Other different groups receive, in addition to diazepam, cocaine, alcohol or nicotine, a concomitant treatment with products which are the subject of the present invention and, by way of comparison, with buspirone or ipsapirone.
The product described and the doses tested were: 4,5-dichloro-2-methyl-1-{4-[4-(2-pyrimidinyl)-1-piperazinyl]-butyl}-1H-imidazole citrate.
1 μg/kg p.o. twice per day.

[2] = system: conditioned avoidance response in male Wistar rats; assay: conditioned avoidance response test (inhibition of the conditioned avoidance response; anxiolytic/tranquillising activity); assay type: in vivo, rat (male Wistar); details: rat; for Activity % (inhibition of the conditioned avoidance response): D = 80 mg/kg, p.o., 45 min before test; for ED50: po, 0.75 h
Method: Male Wistar rats weighing 200 grammes which have been trained to jump over a barrier in an avoidance and escape cage (shuttle box) (Letica, reference LI 910 and LI 2700) within 30 seconds of their being introduced into the cage are used in this test.
The products having an anxiolytic or tranquillising activity suppress the conditioned avoidance response.
Training: day one: 11 trials at 3 minute intervals. Electric shock to the paws after 30 seconds (5 mA, 0.1 s, 10 s).
Days two and three: 2 trials per day, with the selected rats only [sum of the scores for the first day (with the exception of the first trial)>14].
Test day: groups formed by selected rats. Oral administration of the product or the vehicle 45 minutes before the start of the study.

[3] = system: norepinephrine-induced death in rats; assay: norepinephrine antagonism test in rats (antihypertensive activity); assay type: in vivo, rat (male Wister); details: for Activity % (norepinephrine antagonistic antihypertensive activity): D = 40 mg/kg, i.p., rat, norepinephrine 1.25 mg/kg i.v. after 2 hours; for ED50: Rattus norvegicus, ip, 2 h, read-out: ED50 (norepinephrine antagonistic antihypertensive activity)
Method: This activity is manifested by the protection of animals before death induced by an intravenous injection of norepinephrine, which produces a hypertensive attack in rats.
Male Wister rats weighing 200 grammes are used in this test. The product to be studied is administered intraperitoneally and 1.25 mg/kg (i.v.) of norepinephrine are administered after 2 hours.
The initial administration dose in these studies is 40 mg/kg (i.p.).

[4] = 24 h after stopping alcohol (alone, or with the named product; Ex. 42 at 1 μg/kg p.o. twice per day)
[5] = during long-term treatment with the agent (doses as E20)
[6] = during long-term treatment with the agent (doses as E20), 5 minute counting period
[7] = during long-term treatment with the agent (doses as E20), number of crossings
[8] = 24 h after stopping cocaine (alone, or with the named product; Ex. 42 at 1 μg/kg p.o. twice per day)
[9] = 24 h after stopping diazepam (alone, or with the named product; Ex. 42 at 1 μg/kg p.o. twice per day)
[10] = 24 h after stopping nicotine (alone, or with the named product; Ex. 42 at 1 μg/kg p.o. twice per day)
[11] = during long-term treatment: cocaine 1 mg/kg i.p. 14 days, diazepam 10 mg/kg i.p. twice per day 7 days, alcohol 8% w/v drinking water 14 days, nicotine 0.1 mg/kg i.p. twice per day 7 days

SMILES: CCO [Alcohol]
- Activity within 5 min period, dark box (D) [1, 4]: 167
- Activity within 5 min period, light box (L) [1, 4]: 6
- Latent period L-D [1, 4]: 2
- Time in box, dark (D) [1, 4]: 84
- Latent period L-D [1, 5]: 28
- Time in box, dark (D) [1, 6]: 28
- Activity within 5 min period, dark box (D) [1, 7]: 28
- Activity within 5 min period, light box (L) [1, 7]: 80
- Number of times standing erect within 5 min. period, dark box (D) ([1]; mouse, in vivo): 22
- Number of times standing erect within 5 min. period, light box (L) ([1]; mouse, in vivo): 72
- Number of times standing erect within 5 min. period, dark box (D) ([1]; mouse, in vivo, po): 147
- Number of times standing erect within 5 min. period, light box (L) ([1]; mouse, in vivo, po): 5

SMILES: O=C1CC2(CCCC2)CC(=O)N1CCCCN1CCN(c2ncccn2)CC1 [Buspirone]
- Activity % (inhibition of the conditioned avoidance response) [2]: 99%
- Activity within 5 min period, dark box (D) [1, 4]: 75
- Activity within 5 min period, light box (L) [1, 4]: 15
- Latent period L-D [1, 4]: 7
- Number of times standing erect within 5 min. period, dark box (D) [1, 4]: 80
- Number of times standing erect within 5 min. period, light box (L) [1, 4]: 18
- Time in box, dark (D) [1, 4]: 62
- Activity within 5 min period, dark box (D) [1, 8]: 90
- Activity within 5 min period, light box (L) [1, 8]: 18
- Latent period L-D [1, 8]: 2
- Number of times standing erect within 5 min. period, dark box (D) [1, 8]: 98
- Number of times standing erect within 5 min. period, light box (L) [1, 8]: 10
- Time in box, dark (D) [1, 8]: 70
- Activity within 5 min period, dark box (D) [1, 9]: 100
- Activity within 5 min period, light box (L) [1, 9]: 12
- Latent period L-D [1, 9]: 2
- Number of times standing erect within 5 min. period, dark box (D) [1, 9]: 88
- Number of times standing erect within 5 min. period, light box (L) [1, 9]: 9
- Time in box, dark (D) [1, 9]: 72
- Activity within 5 min period, dark box (D) [1, 10]: 85
- Activity within 5 min period, light box (L) [1, 10]: 20
- Latent period L-D [1, 10]: 8
- Number of times standing erect within 5 min. period, dark box (D) [1, 10]: 80
- Number of times standing erect within 5 min. period, light box (L) [1, 10]: 12
- Time in box, dark (D) [1, 10]: 65
- abstinence syndrome ([1]; induced by diazepam and cocaine): maintains the abstinence syndrome
- abstinence syndrome ([1]; treatment with alcohol and nicotine stopped): an abstinence syndrome, i.e. anxiogenesis, no longer exists
- inhibition of anxiogenic response parameters ([1]; treatment with alcohol stopped): significantly inhibits only a few anxiogenic response parameters

SMILES: Clc1cccc(Cl)c1N=C1NCCN1 [Clonidine, reference compound]
- Activity % (norepinephrine antagonistic antihypertensive activity) [3]: 100%
- ED50 [3]: 1.58 mg/kg

SMILES: COC(=O)[C@H]1[C@@H](OC(=O)c2ccccc2)C[C@@H]2CC[C@H]1N2C [Cocaine]
- Activity within 5 min period, dark box (D) [1, 8]: 149
- Activity within 5 min period, light box (L) [1, 8]: 10
- Latent period L-D [1, 8]: 2
- Number of times standing erect within 5 min. period, dark box (D) [1, 8]: 122
- Number of times standing erect within 5 min. period, light box (L) [1, 8]: 7
- Time in box, dark (D) [1, 8]: 83
- Latent period L-D [1, 5]: 18
- Number of times standing erect within 5 min. period, dark box (D) [1, 5]: 38
- Time in box, dark (D) [1, 6]: 30
- Activity within 5 min period, dark box (D) [1, 7]: 30
- Activity within 5 min period, light box (L) [1, 7]: 68
- Number of times standing erect within 5 min. period, light box (L) [1, 11]: 60

SMILES: CN1C(=O)CN=C(c2ccccc2)c2cc(Cl)ccc21 [Diazepam]
- Activity within 5 min period, dark box (D) [1, 9]: 164
- Activity within 5 min period, light box (L) [1, 9]: 5
- Latent period L-D [1, 9]: 1.8
- Number of times standing erect within 5 min. period, dark box (D) [1, 9]: 146
- Number of times standing erect within 5 min. period, light box (L) [1, 9]: 5
- Time in box, dark (D) [1, 9]: 80
- Latent period L-D [1, 5]: 27
- Number of times standing erect within 5 min. period, dark box (D) [1, 5]: 25
- Time in box, dark (D) [1, 6]: 25
- Activity within 5 min period, dark box (D) [1, 7]: 24
- Activity within 5 min period, light box (L) [1, 7]: 73
- Number of times standing erect within 5 min. period, light box (L) [1, 11]: 70

SMILES: c1cnc(N2CCN(CCCCn3cccc3)CC2)nc1 [Example 1, 1-{4-[4-(2-pyrimidinyl)-1-piperazinyl]-butyl}pyrrole]
- Activity % (inhibition of the conditioned avoidance response) [2]: 94%
- ED50 [2]: 32.4 mg/kg
- Activity % (norepinephrine antagonistic antihypertensive activity) [3]: 0%

SMILES: c1cnc(N2CCN(CCCCn3c4ccccc4c4ccccc43)CC2)nc1 [Example 2]
- Activity % (inhibition of the conditioned avoidance response) [2]: 37%
- Activity % (norepinephrine antagonistic antihypertensive activity) [3]: 0%

SMILES: c1cnc(N2CCN(CCCCn3ccc4ccccc43)CC2)nc1 [Example 3]
- Activity % (inhibition of the conditioned avoidance response) [2]: 74%
- ED50 [2]: 42.8 mg/kg
- Activity % (norepinephrine antagonistic antihypertensive activity) [3]: 25%

SMILES: O=C1c2ccccc2S(=O)(=O)N1CCCCN1CCN(c2ncccn2)CC1 [Ipsapirone]
- Activity % (inhibition of the conditioned avoidance response) [2]: 98%
- Activity within 5 min period, dark box (D) [1, 4]: 80
- Activity within 5 min period, light box (L) [1, 4]: 36
- Latent period L-D [1, 4]: 10
- Number of times standing erect within 5 min. period, dark box (D) [1, 4]: 75
- Number of times standing erect within 5 min. period, light box (L) [1, 4]: 21
- Time in box, dark (D) [1, 4]: 35
- Activity within 5 min period, dark box (D) [1, 8]: 85
- Activity within 5 min period, light box (L) [1, 8]: 18
- Latent period L-D [1, 8]: 8
- Number of times standing erect within 5 min. period, dark box (D) [1, 8]: 89
- Number of times standing erect within 5 min. period, light box (L) [1, 8]: 11
- Time in box, dark (D) [1, 8]: 62
- Activity within 5 min period, dark box (D) [1, 9]: 88
- Activity within 5 min period, light box (L) [1, 9]: 17
- Latent period L-D [1, 9]: 8
- Number of times standing erect within 5 min. period, dark box (D) [1, 9]: 82
- Number of times standing erect within 5 min. period, light box (L) [1, 9]: 15
- Time in box, dark (D) [1, 9]: 90
- Activity within 5 min period, dark box (D) [1, 10]: 98
- Activity within 5 min period, light box (L) [1, 10]: 18
- Latent period L-D [1, 10]: 3
- Number of times standing erect within 5 min. period, dark box (D) [1, 10]: 84
- Number of times standing erect within 5 min. period, light box (L) [1, 10]: 9
- Time in box, dark (D) [1, 10]: 70
- abstinence syndrome ([1]; induced by alcohol): inhibits the abstinence syndrome
- abstinence syndrome ([1]; induced by diazepam, cocaine and nicotine): maintains the abstinence syndrome

SMILES: CN1CCC[C@H]1c1cccnc1 [Nicotine]
- Activity within 5 min period, dark box (D) ([1]; mouse, in vivo): 25
- Activity within 5 min period, light box (L) ([1]; mouse, in vivo): 70
- Latent period L-D ([1]; mouse, in vivo): 26
- Number of times standing erect within 5 min. period, dark box (D) ([1]; mouse, in vivo): 23
- Number of times standing erect within 5 min. period, light box (L) ([1]; mouse, in vivo): 66
- Time in box, dark (D) ([1]; mouse, in vivo): 25
- Activity within 5 min period, dark box (D) ([1]; mouse, in vivo, po): 147
- Activity within 5 min period, light box (L) ([1]; mouse, in vivo, po): 14
- Latent period L-D ([1]; mouse, in vivo, po): 2
- Number of times standing erect within 5 min. period, dark box (D) ([1]; mouse, in vivo, po): 125
- Number of times standing erect within 5 min. period, light box (L) ([1]; mouse, in vivo, po): 10
- Time in box, dark (D) ([1]; mouse, in vivo, po): 78

SMILES: c1ccc(CC2=NCCN2)cc1 [Tolazoline, reference compound]
- Activity % (norepinephrine antagonistic antihypertensive activity) [3]: 100%
- ED50 [3]: 2.97 mg/kg
